Assay results published in the supplement of paper PMC8633005.

Legend:
Assay in all cases: drug sensitivity score (DSS) (DSS (unitless, 0-50 scale)); higher = more sensitive (stronger viability inhibition); extreme values may be limits of the assay
Conditions in all cases: 72 h; culture: 2D
WM165 = test system: WM165
Outline: (§1)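 Viability was measured by CellTiter-Glo luminescence after 72 h at 37 °C in 384-well plates holding a 527-compound oncology library, with patient-derived melanoma cultures (1000–1500 cells per well) and melanoma cell lines grown in 2D. Every compound was tested at five concentrations spanning a 10,000-fold range. The drug sensitivity score, a modified area under the curve, came from dose-response curves fitted with in-house Breeze software.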

Bowes = test system: Bowes
Outline: as §1

SK-MEL-28 = test system: SK-MEL-28
Outline: as §1

WM852 = test system: WM852
Outline: as §1

FM-MEL-2 = test system: FM-MEL-2
Outline: as §1

SK-MEL-2 = test system: SK-MEL-2
Outline: as §1

FM-MEL-3 = test system: FM-MEL-3
Outline: as §1

FM-MEL-6 = test system: FM-MEL-6
Outline: as §1

SMILES | drug sensitivity score (WM165) | drug sensitivity score (Bowes) | drug sensitivity score (SK-MEL-28) | drug sensitivity score (WM852) | drug sensitivity score (FM-MEL-2) | drug sensitivity score (SK-MEL-2) | drug sensitivity score (FM-MEL-3) | drug sensitivity score (FM-MEL-6)
CN1C(=O)N[C@H](Cc2c[nH]c3c(Cl)cccc23)C1=O [Necrostatin 2] | 0 | 0 | 0 | 0 | 0 | 0 | 0 | 0
O=c1ncn2nc(Sc3ccc(F)cc3F)ccc2c1-c1c(Cl)cccc1Cl [Neflamapimod] | 0.1 | 1.6 | 0.1 | 0.1 | 0.1 | 0 | 0.8 | 0.2
COc1nc(N)nc2c1ncn2[C@@H]1O[C@H](CO)[C@@H](O)[C@@H]1O [Nelarabine] | 0 | 0 | 0.1 | 0.6 | 0 | 0 | 0 | 0.1
CCOc1cc2ncc(C#N)c(Nc3ccc(OCc4ccccn4)c(Cl)c3)c2cc1NC(=O)/C=C/CN(C)C [Neratinib] | 4.9 | 3.2 | 0 | 0.5 | 1 | 0.2 | 3.2 | 0.3
CC1(C)NC(=O)N(c2ccc([N+](=O)[O-])c(C(F)(F)F)c2)C1=O [Nilutamide] | 0 | 1.1 | 0 | 0 | 0 | 0 | 0.4 | 0
COC(=O)c1ccc2c(c1)NC(=O)/C2=C(\Nc1ccc(N(C)C(=O)CN2CCN(C)CC2)cc1)c1ccccc1 [Nintedanib] | 0 | 6.5 | 2.1 | 5.3 | 1.5 | 0 | 1.8 | 5.6
NC(=O)c1cccc2cn(-c3ccc([C@@H]4CCCNC4)cc3)nc12 [Niraparib] | 6.9 | 0 | 0 | 0 | 1.4 | 0 | 0 | 0
CC(O)c1cc(C(=O)N[C@@H](C)Cn2ccc(-c3ccc(C#N)c(Cl)c3)n2)n[nH]1 (stereo partly drawn) [ODM-201] | 0 | 1.3 | 0 | 0.2 | 0 | 0 | 2.8 | 1.1
CC(=O)c1cnc2ccc(-c3cc(Cl)c(O)c(Cl)c3)nc2c1N[C@H]1CC[C@H](CN(C)C)CC1 [OTS167] | 17.4 | 15.4 | 14.3 | 10.5 | 9.5 | 11.4 | 19 | 8
O=C(c1cc(Cc2n[nH]c(=O)c3ccccc23)ccc1F)N1CCN(C(=O)C2CC2)CC1 [Olaparib] | 7.5 | 0.4 | 1 | 3.9 | 0 | 0 | 0 | 0
C=CC(=O)Nc1cccc(Oc2nc(Nc3ccc(N4CCN(C)CC4)cc3)nc3ccsc23)c1 [Olmutinib] | 0 | 0.8 | 0 | 0 | 0 | 0 | 0 | 0
COC(=O)C[C@](O)(CCCC(C)(C)O)C(=O)O[C@@H]1C(OC)=C[C@]23CCCN2CCc2cc4c(cc2[C@H]13)OCO4 [Omacetaxine] | 27.2 | 29.1 | 22.4 | 26.1 | 20.4 | 18.2 | 25.9 | 28.5
CC1(C)CC[C@]2(NC(=O)C(C)(F)F)CC[C@]3(C)[C@H](C(=O)C=C4[C@@]5(C)C=C(C#N)C(=O)C(C)(C)[C@@H]5CC[C@]43C)[C@@H]2C1 [Omaveloxolone] | 20.3 | 18.2 | 15.5 | 11.3 | 11.2 | 15.7 | 17.4 | 13.9
CC(C)c1cc(C(=O)N2Cc3ccc(CN4CCN(C)CC4)cc3C2)c(O)cc1O [Onalespib] | 15 | 13.3 | 6.9 | 5.7 | 7.1 | 8 | 14.2 | 4.2
COC[C@H](NC(=O)c1cnc(C)s1)C(=O)N[C@@H](COC)C(=O)N[C@@H](Cc1ccccc1)C(=O)[C@@]1(C)CO1 [Oprozomib] | 20 | 20.3 | 17 | 16.9 | 9.3 | 15.2 | 20.3 | 19.4
CNC(=O)c1ccc2cc([C@@]3(O)CCn4cncc43)ccc2c1 [Orteronel] | 0 | 0 | 0 | 0 | 0 | 0 | 0 | 0
C=CC(=O)Nc1cc(Nc2nccc(-c3cn(C)c4ccccc34)n2)c(OC)cc1N(C)CCN(C)C [Osimertinib] | 4.3 | 2.7 | 4 | 3.5 | 3.2 | 3.4 | 2.7 | 4.6
O=C(O)C(=O)O.[NH-][C@@H]1CCCC[C@H]1[NH-].[Pt+2] [Oxaliplatin] | 14.5 | 5.8 | 7.3 | 3.5 | 4.7 | 4.3 | 3.2 | 11.7
C=CCc1cccc(/C=N/NC(=O)CN2CCN(Cc3ccccc3)CC2)c1O [PAC-1] | 3.4 | 1.6 | 1.5 | 2.8 | 0 | 0 | 0 | 0
O=C(Nc1cccnc1)N1CCC(Cc2cccc(Oc3ccc(C(F)(F)F)cn3)c2)CC1 [PF-3845] | 1 | 3.8 | 0 | 4 | 0 | 0 | 0.1 | 0
COc1ccccc1S(=O)(=O)Nc1ccc2c(c1)CN(C)C(=O)N2 [PFI-1] | 6.2 | 4 | 2.8 | 0.1 | 4.7 | 0.1 | 6 | 4.1
